Assay [1] deals with T1, Adenosine receptor A1 (Homo sapiens, UniProt P30542).
T1 sequence (P30542 whole entry): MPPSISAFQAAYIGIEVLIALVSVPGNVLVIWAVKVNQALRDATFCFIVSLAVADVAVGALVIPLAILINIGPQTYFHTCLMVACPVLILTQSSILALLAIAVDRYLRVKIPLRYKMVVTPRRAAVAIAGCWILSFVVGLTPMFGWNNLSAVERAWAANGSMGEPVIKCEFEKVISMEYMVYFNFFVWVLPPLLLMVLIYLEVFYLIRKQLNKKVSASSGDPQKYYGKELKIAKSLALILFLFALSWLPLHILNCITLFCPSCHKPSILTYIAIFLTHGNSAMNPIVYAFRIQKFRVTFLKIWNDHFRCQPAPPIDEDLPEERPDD
In words: Binding Affinity towards Adenosine A1 receptor expressed in CHO-K1 cells versus [3H]CCPA. The assay is classed as cell-based.

In assay [2] the target is T2, Adenosine receptor A2b (Homo sapiens, UniProt P29275).
T2 sequence (P29275 whole entry): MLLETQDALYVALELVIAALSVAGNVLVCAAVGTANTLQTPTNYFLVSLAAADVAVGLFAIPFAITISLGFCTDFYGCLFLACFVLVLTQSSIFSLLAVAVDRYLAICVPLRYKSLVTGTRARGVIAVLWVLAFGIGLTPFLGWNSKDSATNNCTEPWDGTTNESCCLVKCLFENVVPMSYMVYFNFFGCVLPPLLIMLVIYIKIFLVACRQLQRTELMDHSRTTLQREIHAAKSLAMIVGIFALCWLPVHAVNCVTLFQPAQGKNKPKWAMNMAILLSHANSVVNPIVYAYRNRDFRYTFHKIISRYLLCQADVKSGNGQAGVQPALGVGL
In words: Inhibitory activity on NECA-induced cyclic-AMP accumulation in CHO-K1 cells expressing human Adenosine A2B receptor. The assay is classed as functional, cell-based.

Assay [3] addresses T3, Adenosine receptor A2a (Homo sapiens, UniProt P29274). In words: Binding Affinity towards Adenosine A2A receptor expressed in HEK293 cells versus [3H]CGS-21680. The assay is classed as cell-based.
For assay [4], the target named is T4, Adenosine receptor A2b (Rattus norvegicus, UniProt P29276).
T4 sequence (P29276 whole entry): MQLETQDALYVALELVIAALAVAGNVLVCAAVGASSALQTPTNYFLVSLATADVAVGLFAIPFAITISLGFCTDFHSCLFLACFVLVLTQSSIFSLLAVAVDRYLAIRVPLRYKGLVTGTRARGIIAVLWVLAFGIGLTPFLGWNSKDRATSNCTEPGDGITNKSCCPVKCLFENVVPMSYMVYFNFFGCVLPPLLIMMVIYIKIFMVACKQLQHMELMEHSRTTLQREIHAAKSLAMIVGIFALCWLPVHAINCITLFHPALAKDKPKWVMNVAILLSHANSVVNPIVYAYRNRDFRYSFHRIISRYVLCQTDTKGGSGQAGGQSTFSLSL
In words: Inhibitory activity on N-ethylcarboxamidoadenosine (NECA)-induced glucose production in primary cultured rat hepatocytes. Format: functional, cell-based, Hepatocyte.

For assay [5], the target named is T2, Adenosine receptor A2b. As to the kind of experiment: Inhibitory activity against cyclic AMP production in human Adenosine A2B receptor assay.
Assay [6] concerns the target T3, Adenosine receptor A2a. In words: Binding Affinity for adenosine A2A receptor expressed in HEK293 cells compared to [3H]CGS-21680. The assay is classed as cell-based.
Assay [7] has as its target T5, Adenosine receptor A3 (Homo sapiens, UniProt P0DMS8).
T5 sequence (P0DMS8 whole entry): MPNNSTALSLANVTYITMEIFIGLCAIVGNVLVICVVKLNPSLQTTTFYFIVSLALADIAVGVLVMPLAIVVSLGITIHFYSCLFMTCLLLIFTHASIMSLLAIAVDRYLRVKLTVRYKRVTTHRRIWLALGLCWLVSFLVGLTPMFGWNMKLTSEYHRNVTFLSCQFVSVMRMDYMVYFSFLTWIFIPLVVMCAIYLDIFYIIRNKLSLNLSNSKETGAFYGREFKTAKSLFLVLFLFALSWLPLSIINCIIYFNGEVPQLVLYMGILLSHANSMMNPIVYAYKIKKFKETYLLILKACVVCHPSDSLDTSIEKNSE
As to the kind of experiment: Inhibitory activity against cyclic AMP production in human adenosine A3 receptor assay.

For assay [8], the target named is Adenosine receptor A2a (Rattus norvegicus) (UniProt P30543). As to the kind of experiment: Inhibitory activity against cyclic AMP production in rat Adenosine A2A receptor assay.
Assay [9] has as its target T5, Adenosine receptor A3. As to the kind of experiment: Binding affinity towards adenosine A3 receptor expressed in HEK293 cells versus [125I]AB-MECA. The assay is classed as cell-based.
The target in assay [10] is T6, Adenosine receptor A1 (Rattus norvegicus, UniProt P25099).
T6 sequence (P25099 whole entry): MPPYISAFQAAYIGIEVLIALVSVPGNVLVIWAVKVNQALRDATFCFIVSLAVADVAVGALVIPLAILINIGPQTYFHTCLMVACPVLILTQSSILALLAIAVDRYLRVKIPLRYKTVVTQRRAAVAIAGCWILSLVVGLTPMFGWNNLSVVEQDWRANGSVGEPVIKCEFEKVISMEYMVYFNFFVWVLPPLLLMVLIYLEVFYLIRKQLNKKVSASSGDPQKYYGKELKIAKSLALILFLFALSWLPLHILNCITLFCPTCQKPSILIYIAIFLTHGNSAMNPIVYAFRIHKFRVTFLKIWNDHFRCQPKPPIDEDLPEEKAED
As to the kind of experiment: Inhibitory activity against cyclic AMP production in rat Adenosine A1 receptor assay.

Where only a bound is given, the exact number is not on record here.

T3 sequence (P29274 whole entry): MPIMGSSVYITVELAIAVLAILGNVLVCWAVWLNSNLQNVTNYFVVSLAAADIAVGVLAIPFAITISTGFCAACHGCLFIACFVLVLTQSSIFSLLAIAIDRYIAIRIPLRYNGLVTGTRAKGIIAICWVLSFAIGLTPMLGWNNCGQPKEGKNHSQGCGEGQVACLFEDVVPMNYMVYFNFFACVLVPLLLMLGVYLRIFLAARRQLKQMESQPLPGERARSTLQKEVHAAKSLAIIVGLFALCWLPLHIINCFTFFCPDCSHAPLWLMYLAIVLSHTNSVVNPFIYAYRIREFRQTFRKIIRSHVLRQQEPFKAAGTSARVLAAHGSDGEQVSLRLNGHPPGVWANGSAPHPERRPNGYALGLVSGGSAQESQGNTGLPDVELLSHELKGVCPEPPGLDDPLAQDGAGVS
Adenosine receptor A2a (Rattus norvegicus), sequence (P30543 whole entry, looked up): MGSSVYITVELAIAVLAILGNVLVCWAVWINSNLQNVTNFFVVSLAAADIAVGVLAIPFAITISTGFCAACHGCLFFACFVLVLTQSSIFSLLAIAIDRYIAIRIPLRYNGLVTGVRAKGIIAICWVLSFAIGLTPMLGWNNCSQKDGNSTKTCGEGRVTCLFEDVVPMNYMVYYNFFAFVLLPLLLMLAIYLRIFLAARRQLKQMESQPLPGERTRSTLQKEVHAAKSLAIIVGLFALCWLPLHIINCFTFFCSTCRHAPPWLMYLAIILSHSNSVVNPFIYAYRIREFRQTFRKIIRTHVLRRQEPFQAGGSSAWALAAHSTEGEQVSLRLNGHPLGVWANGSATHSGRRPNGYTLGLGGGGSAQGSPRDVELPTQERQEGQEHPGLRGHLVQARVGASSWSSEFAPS

A word on the Ki: it is a measure of affinity in units of concentration, obtained from inhibition or displacement. A low value points to a stronger hold on the target. Usually IC50 stands for the concentration needed to halve the response being measured. Low values mean greater potency in that assay, high ones weaker potency in that assay. As to `Cn1c(-c2ccccc2F)nc2c(N)nc(C#CC3(O)CCCCC3)nc21`, the results for the Ki at Adenosine receptor A1 [1] and at Adenosine receptor A2a [3] were 19 nM and 15 nM, respectively. The figures for the IC50 against Adenosine receptor A2b [2] and against Adenosine receptor A2b [4] were 77 nM and 440 nM, respectively.
As for `COC(=O)C1=C2C=CN(C)C=C2c2nc(-c3ccccc3)nn2C1`, the Ki on Adenosine receptor A1 [1] is above 10000 nM; on Adenosine receptor A2a [6], above 10 µM. For the same compound, the IC50 was 3000 nM against Adenosine receptor A2b [5], 3000 nM against Adenosine receptor A2b [2] and above 10000 nM on Adenosine receptor A2b [4].
Consider `Cn1c(=O)c2[nH]c(-c3ccccc3)nc2n(C)c1=O` [8-PHENYL THEOPHYLLINE], for which the concentration for half-maximal inhibition (IC50) against Adenosine receptor A2b [5] came out at 210 nM; at Adenosine receptor A2b [2] it was 210 nM; against Adenosine receptor A3 [7], 1250 nM; against Adenosine receptor A2b [4], 1100 nM; in [8], 454 nM.
Consider `Cn1c(-c2cccc(F)c2)nc2c(N)nc(C#CC3(O)CCCCCC3)nc21`, for which the results for the Ki on Adenosine receptor A1 [1] and on Adenosine receptor A2a [3] were 27 nM and 19 nM, respectively. For the same compound, the results for the IC50 on Adenosine receptor A2b [2] and on Adenosine receptor A2b [4] were 49 nM and 440 nM, respectively.
In the case of `CCC(O)(C#Cc1nc(N)c2nc(-c3cccc(F)c3)n(C)c2n1)CC`, the Ki on Adenosine receptor A1 [1] turned out to be 29 nM; on Adenosine receptor A2a [3], 13 nM; at Adenosine receptor A3 [9], 330 nM. Also, the results for the half-maximal inhibitory concentration (IC50) on Adenosine receptor A2b [2] and against Adenosine receptor A2b [4] were 140 nM and 540 nM, respectively.
On to `Cn1c(-c2cccc(C#N)c2)nc2c(N)nc(C#CC3(O)CCCCC3)nc21`, for which the Ki is 130 nM at Adenosine receptor A1 [1] and 13 nM at Adenosine receptor A2a [3]. Further, the IC50 on Adenosine receptor A2b [2] came to 72 nM; against Adenosine receptor A2b [4] it was 410 nM.
Compound `Cc1cccc(-c2nc3c(N)nc(C#CC4(O)CCCCC4)nc3n2C)c1` displayed an IC50 on Adenosine receptor A2b [4] of 970 nM.
Still for that read-out and setting: under `Cn1c(-c2ccccc2)nc2c(N)nc(C#CC3(O)CCCCC3)nc21` stands 760 nM.
Regarding `CCCn1c(=O)c2c(nc(/C=C/c3ccc(OC)c(OC)c3)n2C)n(CCC)c1=O`, the figures for the Ki at Adenosine receptor A1 [1] and at Adenosine receptor A3 [9] were above 10000 nM and 2500 nM, respectively. Besides, the IC50 on Adenosine receptor A2b [2] is 1500 nM; at Adenosine receptor A1 [10] it was 62 nM.
`Cn1c(-c2cccc(Cl)c2)nc2c(N)nc(C#CC3(O)CCCCC3)nc21` showed a half-maximal inhibitory concentration (IC50) against Adenosine receptor A2b [4] of 490 nM.
Still for that read-out and setting: under `Cn1cnc2c(N)nc(C#CC3(O)CCCCC3)nc21` stands 4400 nM.
With `COc1cccc(-c2nc3c(N)nc(C#CC4(O)CCCCC4)nc3n2C)c1`, on Adenosine receptor A2b [4], half-maximal inhibition (IC50) was put at 1600 nM.
On to `Cn1c(-c2ccc(Cl)cc2)nc2c(N)nc(C#CC3(O)CCCCC3)nc21`, for which the IC50 against Adenosine receptor A2b [2] was 500 nM; against Adenosine receptor A2b [4], 6300 nM.
At Adenosine receptor A2b [4], `Cn1c(-c2cccc(F)c2)nc2c(N)nc(C#CC3CCCC3)nc21` gave an IC50 of 720 nM.
Regarding `O=C(/C=C/c1c(-c2ccccc2)nn2ccccc12)N1CCCC[C@@H]1CCO` [FK453], the Ki was 18 nM on Adenosine receptor A1 [1] and 2800 nM at Adenosine receptor A3 [9]. Besides, the IC50 against Adenosine receptor A1 [10] amounted to 17.2 nM; on Adenosine receptor A2b [4], 8100 nM.
Turning to `Cn1c(-c2ccc(F)cc2)nc2c(N)nc(C#CC3(O)CCCCC3)nc21`, the values for the IC50 at Adenosine receptor A2b [2] and against Adenosine receptor A2b [4] were 160 nM and 1200 nM, respectively.
On Adenosine receptor A2b [4], `Cn1c(-c2ccccn2)nc2c(N)nc(C#CC3(O)CCCCC3)nc21` came in with an IC50 of 1300 nM.
Same read-out and setting: the result for `COc1ccc(-c2nc3c(N)nc(C#CC4(O)CCCCC4)nc3n2C)cc1F` reads above 10000 nM.
In the case of `Cn1c(-c2cccc(C(F)(F)F)c2)nc2c(N)nc(C#CC3(O)CCCCC3)nc21`, the IC50 is 5600 nM on Adenosine receptor A2b [2] and above 10000 nM against Adenosine receptor A2b [4].
Regarding `Cn1c(-c2cccc(F)c2)nc2c(N)nc(C#CC3(O)CCCC3)nc21`, the Ki was determined as 20 nM at Adenosine receptor A1 [1] and 1100 nM on Adenosine receptor A3 [9]. Further, the IC50 worked out at 63 nM against Adenosine receptor A2b [2] and 420 nM at Adenosine receptor A2b [4].
Consider `Cn1c(-c2ccco2)nc2c(N)nc(C#CC3(O)CCCCC3)nc21`, for which the Ki at Adenosine receptor A1 [1] is 25 nM; on Adenosine receptor A2a [3] it was 11 nM. Further, the IC50 is 14 nM on Adenosine receptor A2b [2] and 220 nM on Adenosine receptor A2b [4].
`Cn1c(-c2cccc(F)c2)nc2c(N)ncnc21` yielded an IC50 at Adenosine receptor A2b [4] of 5300 nM.
As to `Cn1c(-c2cccs2)nc2c(N)nc(C#CC3(O)CCCCC3)nc21`, the IC50 on Adenosine receptor A2b [4] turned out to be 750 nM.
Take `Cn1c(-c2cccc(F)c2)nc2c(N)nc(C#CC3(O)CCCCC3)nc21`: the figures for the Ki on Adenosine receptor A1 [1], on Adenosine receptor A2a [3] and on Adenosine receptor A3 [9] were 14 nM, 16 nM and 540 nM, respectively. For the same compound, the IC50 at Adenosine receptor A2b [2] is 23 nM; on Adenosine receptor A2b [4], 250 nM.
Taken in the same sequence, the figures for `Cn1c(-c2cccc(F)c2)nc2c(N)nc(C#CC(C)(C)O)nc21` were 30 nM, 9.1 nM, 2100 nM, 150 nM and 510 nM.

The values above are taken from ChEMBL document CHEMBL1134604, “2-Alkynyl-8-aryl-9-methyladenines as novel adenosine receptor antagonists: their synthesis and structure-activity relationships toward hepatic glucose production induced via agonism of the A(2B) receptor” (J Med Chem, 2001).
